Measurements from patent US20130230580A1, “Administration of SNS Neuroprotective Agents to Promote Hematopoietic Regeneration” (priority 2010, published 2013).

B1: GDNF-HA: glial cell-derived neurotrophic factor-hemagluttinin fusion (protein, UniProt P39905 78-211, looked up)
Glial cell line-derived …: SPDKQMAVLPRRERNRQAAAANPENSRGKGRRGQRGKNRGCVLTAIHLNVTDLGLGYETKEELIFRYCSGSCDAAETTYDKILKNLSRNRRLVSDKVGQACCRPIAFDDDLSFLDDNLVYHILRKHSAKRCGCI
modifications: hemagglutinin tag
notes: glial cell-derived neurotrophic factor-hemagluttinin fusion

Assays:
[1] = Complete blood counts of moribund cisplatin-treated mice after BMNC transplantation; assay type: in vivo; conditions: after BMT
Experimental: (§1) To protect from kidney damage, mice were simultaneously subcutaneously (s.c.) injected with 1 mL of saline solution. Four weeks after the last injection of cisplatin, mice were euthanized for analysis, transplanted (see below) or mobilized with granulocyte colony-stimulating factor (G-CSF, see below).
(§2) Mice were irradiated (1,200 cGy, two split doses, 3 hours apart) in a Cesium Mark 1 irradiator (JL Shepperd & associates). Three hours later, the indicated number of BMNCs was injected retroorbitally in the irradiated recipients under isoflurane (Phoenix Pharmaceuticals) anesthesia. Mice were allowed to recover and analyzed at the indicated time points.
Blood was harvested by retro-orbital sampling of mice anesthetized with isoflurane and collected in polypropylene tubes containing ethylenediaminetetraacetic acid (EDTA). Blood parameters were determined with an AcT differential counter (Beckman-Coulter). CFU-C assays were performed as described in He et al., Ann. Rev. Cell. Dev. Biol. 25:377 (2009), incorporated herein by reference. For flow cytometry, red blood cells were lysed thrice for 5 minutes at 4° C. in 0.15 M NH4Cl, cells were washed once in ice-cold PBS and counted in a hemocytometer. […] Cells were further stained with streptavidin-Cy5 (Jackson Immunotech) and analyzed with a BD LSR11 system (BD Biosciences). […] CFU-C and Lin^−Sca1^+c-kit^+ft13^− numbers were determined as above. […]

[2] = system: TH+ fibers; test: Immunofluorescence quantification of TH+ sympathetic fibers in bone marrow / calvaria; conditions: compared with vehicle control
Experimental: Bones were collected and fixed for 1 hour in 4% paraformaldehyde (PFA) in PBS (Electron Microscopy Sciences) at 4° C. They were then post-fixed overnight in 1% PFA in PBS at 4° C. and cryoprotected for 24 hours in 30% sucrose. Bones were then included in OCT (Tissue Tek), sectioned (14 μm sections) in a Cryostat, and mounted on CFSA 4× Slides (Leica). TH^+ immunofluorescence staining was performed as previously described in Mendez-Ferrer, et al., Nature 452:442 (2008), incorporated herein by reference. For each mouse analyzed, the number of nerve fibers in 6 fields was quantified and plotted as per mm^2. For whole-mount immunofluorescence, calvaria were harvested by cutting along the temporal lines of the skull and immediately fixed in methanol. Bone tissues were blocked/permeabilized in PBS containing 20% FCS and 0.5% Triton and stained with APC-conjugated anti-PECAM CD31 antibody and TH (Millipore). Signal amplification for TH staining was achieved by using a signal amplification kit (Perkin Elmer). Whole-mount tissues were imaged face-down on an upright Olympus BX61WI microscope. The area between the frontal and parietal bones was identified by moving along the coronal suture and images were obtained from the same area for all mice, along the coronal vein on either side of the central vein. The numbers of individual nerve fibers running alongside blood vessels were quantified and plotted as per 100 μm vessel segment. All images were processed using Slidebook software (Intelligent Imaging Innovations, Inc.).

[3] = parameters: species or system mice; conditions: mouse, in vivo
Experimental: as §1
To induce neuroprotection from 60HDA, mice were injected with 4-MC (10 μg/kg; i.p.) or GDNF-Fc (5 μg per mice; s.c.) for 5 days, starting the treatment the same day as the first injection of 60HDA.
Mice received G-CSF ([…]) s.c. every 12 hours for 5 days. Due to circadian oscillations on HSC mobilization, the last dose of G-CSF was administered 1 hour before blood collection at Zeigeber time 5.
Blood was harvested by retro-orbital sampling of mice anesthetized with isoflurane and collected in polypropylene tubes containing ethylenediaminetetraacetic acid (EDTA). Blood parameters were determined with an AcT differential counter (Beckman-Coulter). CFU-C assays were performed as described in He et al., Ann. Rev. Cell. Dev. Biol. 25:377 (2009), incorporated herein by reference. For flow cytometry, red blood cells were lysed thrice for 5 minutes at 4° C. in 0.15 M NH4Cl, cells were washed once in ice-cold PBS and counted in a hemocytometer. […] Cells were further stained with streptavidin-Cy5 (Jackson Immunotech) and analyzed with a BD LSR11 system (BD Biosciences). Bone marrow was harvested by flushing the bone with 1 mL of ice-cold PBS, red blood cells were lysed once for 5 minutes at 4° C. in 0.15 M NH4Cl, cells were washed once in ice-cold PBS and counted with a hemocytometer. CFU-C and Lin^−Sca1^+c-kit^+ft13^− numbers were determined as above. In some experiments, CD150^+CD48^− cell numbers were determined by staining 5×10^6 cells with PE-anti-CD48 antibody (BD Biosciences) and PE-Cy7-anti-CD150 antibody (Biolegend).

[4] = assay type: in vivo; conditions: cisplatin-treated vs saline mice, seven weekly injections; listed as Cisplatin
Experimental: To protect from kidney damage, mice were simultaneously subcutaneously (s.c.) injected with 1 mL of saline solution. Four weeks after the last injection of cisplatin, mice were euthanized for analysis, transplanted (see below) or mobilized with granulocyte colony-stimulating factor (G-CSF, see below). […] To induce neuroprotection from 60HDA, mice were injected with 4-MC (10 μg/kg; i.p.) or GDNF-Fc (5 μg per mice; s.c.) for 5 days, starting the treatment the same day as the first injection of 60HDA. To evaluate the effect of different treatments on the sensory response, the hot-plate test was performed as described in Raaijmakers et al., Curr. Opin. Hematol. 15:301 (2008), incorporated herein by reference. An Isotemp Dryblock (Fisher Scientific) was heated to, and maintained at, 50° C. Mice were individually placed on top of the heated surface and the time to the first episode of nociception (jumping or paw licking) was measured. The cut-off time was 60 seconds. Between measurements, the heated surface was thoroughly cleaned with detergent and ethanol and the temperature was allowed to stabilize at 50° C.

[5] = system: bone marrow; test: Bone marrow hematopoietic recovery after transplantation (BMNC, CFU-C, Lin-Sca1+c-kit+flt3- cells); assay type: in vivo, mice
Experimental: as §2, with “points. […]” for “points.”
Blood was harvested by retro-orbital sampling of mice anesthetized with isoflurane and collected in polypropylene tubes containing ethylenediaminetetraacetic acid (EDTA). Blood parameters were determined with an AcT differential counter (Beckman-Coulter). CFU-C assays were performed as described in He et al., Ann. Rev. Cell. Dev. Biol. 25:377 (2009), incorporated herein by reference. For flow cytometry, red blood cells were lysed thrice for 5 minutes at 4° C. in 0.15 M NH4Cl, cells were washed once in ice-cold PBS and counted in a hemocytometer. To determine Lin^−Sca1^+c-kit^+ or Lin^−Sca1^+c-kit^+ft13^− numbers, 10^6 cells were stained with the Mouse Lineage Panel (BD Biosciences) together with FITC-conjugated anti-Sca-1 antibody (BD Biosciences), PE-Cy7-conjugated anti-c-kit antibody (eBioscience) and PE-conjugated anti-flt3 antibody (eBioscience). Cells were further stained with streptavidin-Cy5 (Jackson Immunotech) and analyzed with a BD LSR11 system (BD Biosciences). Bone marrow was harvested by flushing the bone with 1 mL of ice-cold PBS, red blood cells were lysed once for 5 minutes at 4° C. in 0.15 M NH4Cl, cells were washed once in ice-cold PBS and counted with a hemocytometer. CFU-C and Lin^−Sca1^+c-kit^+ft13^− numbers were determined as above. In some experiments, CD150^+CD48^− cell numbers were determined by staining 5×10^6 cells with PE-anti-CD48 antibody (BD Biosciences) and PE-Cy7-anti-CD150 antibody (Biolegend).

[6] = system: PC12ES cells; test: Neural differentiation of PC12ES cells; assay type: cell-based; conditions: incubation for 1 week
Experimental: The murine cDNA for glial cell-line derived neurotrophic factor (Gdnf) was obtained from Open Biosystems. This cDNA was amplified and restriction sites were added for cloning with the following primers Forward: ACGCTAGCAATGGGATTCGGGCCACTT (SEQ ID NO:1); Reverse: CGAGATCTGCGATACATCCACACCGTTTAG (SEQ ID NO:2). The PCR product was purified and cloned into the PCL5.1neg plasmid to generate PCL5.1neg-GDNF. This plasmid was purified and transfected into 293T cells. Two days after transfection, the supernatant was collected and GDNF-Fc purified in a Protein G-sepharose column (Pierce). To assess functional activity of GDNF-Fc recombinant protein, PC12ES cells were cultured in DMEM supplemented with 5% FBS, 10% horse serum, sodium-pyruvate (Gibco), L-Glutamine (Gibco) and penicillin/streptomycin (Gibco) for 3 days and then the media was replaced with DMEM supplemented with 1% horse serum, sodium-pyruvate (Gibco), L-Glutamine (Gibco), penicillin/streptomycin (Gibco) and varying amounts of GDNF-Fc to induce differentiation. Seven days later the percentage of PC12 ES cells with two or more dendrites was scored under an inverted microscope. For each concentration of GDNF-Fc, 10 fields were analyzed.

Molecule | anemia in moribund mice [1] | reduction of density of TH+ fibers in bone marrow [2] [%] | number of mobilized progenitors in blood after G-CSF [3] | progenitor and Lin-Sca1+c-kit+flt3- HSC numbers in BM [3] | reduction in number of mobilized progenitors in blood [3] | sensory neuropathy (latency time in nociception assay) [4] | bone marrow cellularity of surviving mice after transplantation ([5]; cisplatin-treated, four weeks after BMT) | BM recovery 3 months after transplantation ([5]; mouse, in vivo) | HSC content by competitive repopulation assays ([5]; mouse, in vivo) | neural differentiation of PC12ES cells (percent differentiated) [6]
N.N.[Cl][Pt][Cl] [cisplatin] | severe anemia | 65 | markedly reduced | no significant change | approximately 50% | induces peripheral neuropathy | severely aplastic | not yet completely recovered | reduced HSC content | –
B1 | – | – | – | – | – | – | – | – | – | increase in the percent differentiation
